Reference: patent US6525001B1, “Substituted pyrimidine and pyridine herbicides” (Mid-American Commercialization Corporation, priority 1997, dated 2003)

What was measured:
Format in all cases: in vivo
[1] = test system: giant foxtail (Setaria faberii); assay: Test B pre-/postemergence; parameters: key: 0 is no effect; 10 is complete control
In short: (§1)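 Compounds in a surfactant-containing, non-phytotoxic solvent blend are applied to freshly planted seed (preemergence) and, concurrently, to seedlings of 2 to 18 cm at 1–4 leaves (postemergence). Plants stay in the greenhouse twelve to sixteen days and are then scored visually from 0 (no effect) to 10 (complete control).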

[2] = test system: blackgrass (Alopecurus myosuroides); assay: Test B pre-/postemergence; parameters: key: 0 is no effect; 10 is complete control; settings: for Blackgrass plant response rating: Preemergence
In short: as §1

[3] = test system: pigweed (Amaranthus retroflexus); assay: Test B pre-/postemergence; parameters: key: 0 is no effect; 10 is complete control
In short: as §1

[4] = test system: purple nutsedge (Cyperus rotundus); assay: Test B pre-/postemergence; parameters: key: 0 is no effect; 10 is complete control
In short: as §1

wild oat (Avena fatua) = assay: Test B pre-/postemergence; parameters: key: 0 is no effect; 10 is complete control
In short: as §1

rape (Brassica napus) = assay: Test B pre-/postemergence; parameters: key: 0 is no effect; 10 is complete control
In short: as §1

[5] = test system: broadleaf signalgrass (Brachiaria decumbens); assay: Test B pre-/postemergence; parameters: key: 0 is no effect; 10 is complete control; settings: for B. signalgrass plant response rating: Preemergence
In short: as §1

[6] = test system: momingglory (Ipomoea hederacea); assay: Test B pre-/postemergence; parameters: key: 0 is no effect; 10 is complete control
In short: as §1

[7] = test system: crabgrass (Digitaria sanguinalis); assay: Test B pre-/postemergence; parameters: key: 0 is no effect; 10 is complete control; settings: for Crabgrass plant response rating: Preemergence
In short: as §1

[8] = test system: sugar beet (Beta vulgaris); assay: Test B pre-/postemergence; parameters: key: 0 is no effect; 10 is complete control
In short: as §1

corn (Zea mays) = assay: Test B pre-/postemergence; parameters: key: 0 is no effect; 10 is complete control; settings: for Corn plant response rating: Preemergence
In short: as §1

[9] = test system: cocklebur (Xanthium strumarium); assay: Test B pre-/postemergence; parameters: key: 0 is no effect; 10 is complete control; settings: for Plant response rating, Cocklebur: Postemergence; for Cocklebur plant response rating: Preemergence
In short: as §1

[10] = test system: bedstraw (Galium aparine); assay: Test B pre-/postemergence; parameters: key: 0 is no effect; 10 is complete control; settings: for Bedstraw plant response rating: Preemergence
In short: as §1

[11] = test system: velvetleaf (Abutilon theophrasti); assay: Test B pre-/postemergence; parameters: key: 0 is no effect; 10 is complete control
In short: as §1

[12] = test system: wheat (Triticum aestivum); assay: Test B pre-/postemergence; parameters: key: 0 is no effect; 10 is complete control
In short: as §1

soybean (Glycine max) = assay: Test B pre-/postemergence; parameters: key: 0 is no effect; 10 is complete control
In short: as §1

[13] = test system: smallflower flatsedge (Cyperus difformis); assay: Test B flood test
In short: (§2)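 Read-out is a visual response score from 0 (no effect) to 10 (complete control), assigned by comparison with untreated controls. Treatment was applied at the 2-leaf stage, and plants stayed in the greenhouse for twelve to sixteen days before scoring.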

rice (Oryza sativa) = assay: Test B flood test
In short: as §2

[14] = test system: bamyardgrass (Echinochloa crus-galli); assay: Test B flood test
In short: as §2

[15] = test system: duck salad (Heteranthera limosa); assay: Test B flood test
In short: as §2

[16] = Rate 250 g/ha, Postemergence (so in the source)
[17] = Rate 62 g/ha, Postemergence (flood test)
[18] = Rate 125 g/ha, Postemergence section (flood test species)
[19] = Rate 250 g/ha, Postemergence (flood test species)
[20] = Rate 125 g/ha, Postemergence, flood test

Cc1cnc(-c2ccc(Cl)cc2)nc1Cc1cccc(C(F)(F)F)c1 [Compound 28] was tested, and the “Plant response rating, Giant foxtail” value ([1]; Rate 62 g/ha, Postemergence) was 3, the “Giant foxtail plant response rating” value ([1]; Rate 62 g/ha, Preemergence) was 4 and the “Giant foxtail plant response rating” value ([1]; Rate 125 g/ha, Postemergence) was 4. For the same molecule, the “Giant foxtail plant response rating” value ([1]; Rate 125 g/ha, Preemergence) was 9, the “Plant response rating, Giant foxtail” value ([1]; Rate 250 g/ha, Postemergence) was 9 and the “Plant response rating, Giant foxtail” value [1, 16] was 10. The “Plant response rating, Blackgrass” value ([2]; Rate 62 g/ha, Postemergence) was 4, the “Blackgrass plant response rating” value ([2]; Rate 62 g/ha) was 2 and the “Plant response rating, Blackgrass” value ([2]; Rate 125 g/ha, Postemergence) was 5. The “Blackgrass plant response rating” value ([2]; Rate 125 g/ha) was 5, the “Plant response rating, Blackgrass” value ([2]; Rate 250 g/ha, Postemergence) was 8 and the “Plant response rating, Blackgrass” value [2, 16] was 6. The “Plant response rating, Redroot pigweed” value ([3]; Rate 62 g/ha, Postemergence) was 8, the “Redroot pigweed plant response rating” value ([3]; Rate 62 g/ha, Preemergence) was 5 and the “Redroot pigweed plant response rating” value ([3]; Rate 125 g/ha, Postemergence) was 9. For the same molecule, the “Redroot pigweed plant response rating” value ([3]; Rate 125 g/ha, Preemergence) was 6, the “Plant response rating, Redroot pigweed” value ([3]; Rate 250 g/ha, Postemergence) was 10 and the “Plant response rating, Redroot pigweed” value [3, 16] was 7. For the same molecule, the “Plant response rating, Nutsedge” value ([4]; Rate 62 g/ha, Postemergence) was 0, the “Nutsedge plant response rating” value ([4]; Rate 62 g/ha, Preemergence) was 0 and the “Nutsedge plant response rating” value ([4]; Rate 125 g/ha, Postemergence) was 3. The “Nutsedge plant response rating” value ([4]; Rate 125 g/ha, Preemergence) was 0, the “Plant response rating, Nutsedge” value [4, 16] was 0 and the “Wild oats plant response rating” value (wild oat (Avena fatua); Rate 62 g/ha, Postemergence) was 4. For the same molecule, the “Wild oats plant response rating” value (wild oat (Avena fatua); Rate 62 g/ha, Preemergence) was 3, the “Wild oats plant response rating” value (wild oat (Avena fatua); Rate 125 g/ha, Postemergence) was 5 and the “Plant response rating, Wild oats” value (wild oat (Avena fatua); Rate 125 g/ha, Preemergence) was 3. For the same molecule, the “Plant response rating, Wild oats” value (wild oat (Avena fatua); Rate 250 g/ha, Postemergence) was 6, the “Plant response rating, Wild oats” value (wild oat (Avena fatua); [16]) was 4 and the “Plant response rating, Rape” value (rape (Brassica napus); Rate 62 g/ha, Postemergence) was 9. For the same molecule, the “Rape plant response rating” value (rape (Brassica napus); Rate 62 g/ha, Preemergence) was 1, the “Rape plant response rating” value (rape (Brassica napus); Rate 125 g/ha, Postemergence) was 9 and the “Rape plant response rating” value (rape (Brassica napus); Rate 125 g/ha, Preemergence) was 2. The “Plant response rating, Rape” value (rape (Brassica napus); Rate 250 g/ha, Postemergence) was 10, the “Plant response rating, Rape” value (rape (Brassica napus); [16]) was 4 and the “Plant response rating, B. signalgrass” value ([5]; Rate 62 g/ha, Postemergence) was 4. The “B. signalgrass plant response rating” value ([5]; Rate 62 g/ha) was 2, the “Plant response rating, B. signalgrass” value ([5]; Rate 125 g/ha, Postemergence) was 5 and the “B. signalgrass plant response rating” value ([5]; Rate 125 g/ha) was 5. The “Plant response rating, B. signalgrass” value ([5]; Rate 250 g/ha, Postemergence) was 9, the “Plant response rating, B. signalgrass” value ([5]; Rate 250 g/ha, Postemergence as printed in head r139 (second section for compounds 26-50)) was 9 and the “Plant response rating, Morningglory” value ([6]; Rate 62 g/ha, Postemergence) was 3. For the same molecule, the “Morningglory plant response rating” value ([6]; Rate 62 g/ha, Preemergence) was 2, the “Morningglory plant response rating” value ([6]; Rate 125 g/ha, Postemergence) was 3 and the “Morningglory plant response rating” value ([6]; Rate 125 g/ha, Preemergence) was 2. The “Plant response rating, Morningglory” value ([6]; Rate 250 g/ha, Postemergence) was 3, the “Plant response rating, Morningglory” value [6, 16] was 3 and the “Plant response rating, Crabgrass” value ([7]; Rate 62 g/ha, Postemergence) was 3. For the same molecule, the “Crabgrass plant response rating” value ([7]; Rate 62 g/ha) was 2, the “Plant response rating, Crabgrass” value ([7]; Rate 125 g/ha, Postemergence) was 9 and the “Crabgrass plant response rating” value ([7]; Rate 125 g/ha) was 4. The “Plant response rating, Crabgrass” value ([7]; Rate 250 g/ha, Postemergence) was 10, the “Plant response rating, Crabgrass” value [7, 16] was 10 and the “Plant response rating, Sugarbeets” value ([8]; Rate 62 g/ha, Postemergence) was 9. The “Sugarbeets plant response rating” value ([8]; Rate 62 g/ha, Preemergence) was 0, the “Sugarbeets plant response rating” value ([8]; Rate 125 g/ha, Postemergence) was 9 and the “Plant response rating, Sugarbeets” value ([8]; Rate 125 g/ha, Preemergence) was 2. The “Plant response rating, Sugarbeets” value ([8]; Rate 250 g/ha, Postemergence) was 10, the “Plant response rating, Sugarbeets” value [8, 16] was 3 and the “Plant response rating, Corn” value (corn (Zea mays); Rate 62 g/ha, Postemergence) was 2. The “Corn plant response rating” value (corn (Zea mays); Rate 62 g/ha) was 0, the “Plant response rating, Corn” value (corn (Zea mays); Rate 125 g/ha, Postemergence) was 3 and the “Corn plant response rating” value (corn (Zea mays); Rate 125 g/ha) was 0. The “Plant response rating, Corn” value (corn (Zea mays); Rate 250 g/ha, Postemergence) was 4, the “Plant response rating, Corn” value (corn (Zea mays); [16]) was 1 and the “Plant response rating, Cocklebur” value ([9]; Rate 62 g/ha) was 7. The “Cocklebur plant response rating” value ([9]; Rate 62 g/ha) was 0, the “Plant response rating, Cocklebur” value ([9]; Rate 125 g/ha) was 8 and the “Cocklebur plant response rating” value ([9]; Rate 125 g/ha) was 0. For the same molecule, the “Plant response rating, Cocklebur” value ([9]; Rate 250 g/ha) was 8, the “Plant response rating, Bedstraw” value ([10]; Rate 62 g/ha, Postemergence) was 2 and the “Bedstraw plant response rating” value ([10]; Rate 62 g/ha) was 2. For the same molecule, the “Plant response rating, Bedstraw” value ([10]; Rate 125 g/ha, Postemergence) was 8, the “Bedstraw plant response rating” value ([10]; Rate 125 g/ha) was 4 and the “Plant response rating, Bedstraw” value ([10]; Rate 250 g/ha, Postemergence) was 8. For the same molecule, the “Plant response rating, Bedstraw” value [10, 16] was 8, the “Plant response rating, Velvetleaf” value ([11]; Rate 62 g/ha, Postemergence) was 3 and the “Velvetleaf plant response rating” value ([11]; Rate 62 g/ha, Preemergence) was 1. For the same molecule, the “Velvetleaf plant response rating” value ([11]; Rate 125 g/ha, Postemergence) was 4, the “Plant response rating, Velvetleaf” value ([11]; Rate 125 g/ha, Preemergence) was 1 and the “Plant response rating, Velvetleaf” value ([11]; Rate 250 g/ha, Postemergence) was 8. The “Plant response rating, Velvetleaf” value [11, 16] was 2, the “Wheat plant response rating” value ([12]; Rate 62 g/ha, Postemergence) was 3 and the “Wheat plant response rating” value ([12]; Rate 62 g/ha, Preemergence) was 0. The “Wheat plant response rating” value ([12]; Rate 125 g/ha, Postemergence) was 4, the “Plant response rating, Wheat” value ([12]; Rate 125 g/ha, Preemergence) was 0 and the “Plant response rating, Wheat” value ([12]; Rate 250 g/ha, Postemergence) was 5. The “Plant response rating, Wheat” value [12, 16] was 0, the “Plant response rating, Soybean” value (soybean (Glycine max); Rate 62 g/ha, Postemergence) was 4 and the “Soybean plant response rating” value (soybean (Glycine max); Rate 62 g/ha, Preemergence) was 0. For the same molecule, the “Soybean plant response rating” value (soybean (Glycine max); Rate 125 g/ha, Postemergence) was 7, the “Plant response rating, Soybean” value (soybean (Glycine max); Rate 125 g/ha, Preemergence) was 0 and the “Plant response rating, Soybean” value (soybean (Glycine max); Rate 250 g/ha, Postemergence) was 7. The “Plant response rating, Soybean” value (soybean (Glycine max); [16]) was 1, the “Plant response rating, S. Flatsedge” value [13, 17] was 5 and the “S. Flatsedge plant response rating” value [13, 18] was 8. For the same molecule, the “Plant response rating, S. Flatsedge” value [13, 19] was 8, the “Plant response rating, Rice” value (rice (Oryza sativa); [17]) was 2 and the “Rice plant response rating” value (rice (Oryza sativa); [18]) was 2. For the same molecule, the “Plant response rating, Rice” value (rice (Oryza sativa); [19]) was 3, the “Plant response rating, Barnyardgrass” value [14, 17] was 3 and the “Plant response rating, Barnyardgrass” value [14, 20] was 4. For the same molecule, the “Plant response rating, Barnyardgrass” value [14, 19] was 5, the “Plant response rating, Ducksalad” value [15, 17] was 2 and the “Plant response rating, Ducksalad” value [15, 20] was 3. The “Plant response rating, Ducksalad” value [15, 19] was 6.
